Measured values reported in the supplement of paper PMC11208160.

Assay: recombinant UMI read abundance after kanamycin selection (control-corrected) (log10(CPM+1)); higher = more efficient recombination; extreme values may be limits of the assay; sequences stand for … in AGTGCAGAGAAAATCGGCCAGTTTTCTCTGCCTGCAGTCCGCATGCCGTGGGACCCCTTGGGTTCTAACCTGTTGCCTAGATTTATGCAGCGGACTGCCTTTCTCCCAAAGTGATAAACCGG…AGGTTGGTTTCACT; site = the 11-nt donor
Method in brief: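 After plating on IPTG (0.07 mM) plus kanamycin, or unselected, in two replicates, recombinant UMIs were PCR-amplified across the donor–target junction and sequenced. The cells were Escherichia coli co-electroporated with a UMI-tagged donor and donor-binding-loop pair library and a target plasmid with a fixed target and T7-inducible IS621 bridge recombinase. Values are log10(CPM+1), with CPM averaged over replicates and scaled by control-derived factors.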
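Note: IS621 bridge recombinase in Escherichia coli cells against a fixed T5 target plasmid.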

| Sequence | recombinant UMI read abundance (log10) |
| --- | --- |
| GGGGCACCATGGACCGGTTTTCCCGGTAATCCGTATTTGCA (site GAGGCACCTTG) | 0.00459 |
| GGGGCACCATGGACCGGTTTTCCCGGTAATCCGTATTTGCA (site GCGGCACCTTG) | 0 |
| GGGGCACCATGGACCGGTTTTCCCGGTAATCCGTATTTGCA (site GGAGCACCTTG) | 0 |
| GGGGCACCATGGACCGGTTTTCCCGGTAATCCGTATTTGCA (site GGCGCACCTTG) | 0 |
| GGGGCACCATGGACCGGTTTTCCCGGTAATCCGTATTTGCA (site GGGACACCTTG) | 0 |
| GGGGCACCATGGACCGGTTTTCCCGGTAATCCGTATTTGCA (site GGGCCACCTTG) | 0.00389 |
| GGGGCACCATGGACCGGTTTTCCCGGTAATCCGTATTTGCA (site GGGGAACCTTG) | 0 |
| GGGGCACCATGGACCGGTTTTCCCGGTAATCCGTATTTGCA (site GGGGCAACTTG) | 0 |
| GGGGCACCATGGACCGGTTTTCCCGGTAATCCGTATTTGCA (site GGGGCACCTAG) | 0.0125 |
| GGGGCACCATGGACCGGTTTTCCCGGTAATCCGTATTTGCA (site GGGGCACCTCG) | 0.0103 |
| GGGGCACCATGGACCGGTTTTCCCGGTAATCCGTATTTGCA (site GGGGCACCTGG) | 0 |
| GGGGCACCATGGACCGGTTTTCCCGGTAATCCGTATTTGCA (site GGGGCACCTTA) | 0.011 |
| GGGGCACCATGGACCGGTTTTCCCGGTAATCCGTATTTGCA (site GGGGCACCTTC) | 0.0181 |
| GGGGCACCATGGACCGGTTTTCCCGGTAATCCGTATTTGCA (site GGGGCACCTTG) | 0 |
| GGGGCACCATGGACCGGTTTTCCCGGTAATCCGTATTTGCA (site GGGGCACCTTT) | 0.0161 |
| GGGGCACCATGGACCGGTTTTCCCGGTAATCCGTATTTGCA (site GGGGCAGCTTG) | 0 |
| GGGGCACCATGGACCGGTTTTCCCGGTAATCCGTATTTGCA (site GGGGCATCTTG) | 0 |
| GGGGCACCATGGACCGGTTTTCCCGGTAATCCGTATTTGCA (site GGGGCCCCTTG) | 0.0249 |
| GGGGCACCATGGACCGGTTTTCCCGGTAATCCGTATTTGCA (site GGGGCGCCTTG) | 0.0148 |
| GGGGCACCATGGACCGGTTTTCCCGGTAATCCGTATTTGCA (site GGGGCTCCTTG) | 0 |
| GGGGCACCATGGACCGGTTTTCCCGGTAATCCGTATTTGCA (site GGGGGACCTTG) | 0 |
| GGGGCACCATGGACCGGTTTTCCCGGTAATCCGTATTTGCA (site GGGGTACCTTG) | 0 |
| GGGGCACCATGGACCGGTTTTCCCGGTAATCCGTATTTGCA (site GGGTCACCTTG) | 0.0044 |
| GGGGCACCATGGACCGGTTTTCCCGGTAATCCGTATTTGCA (site GGTGCACCTTG) | 0 |
| GGGGCACCATGGACCGGTTTTCCCGGTAATCCGTATTTGCA (site GTGGCACCTTG) | 0.0102 |

| Sequence | recombinant UMI read abundance (log10) |
| --- | --- |
| GGGGCACCATGGACCGGTTTTCCCGGTAATCCGTATTTGCA (site TGGGCACCTTG) | 0.00982 |
| GGGTCACCATGGACCGGTTTTCCCGGTAATCCGTATTTGCC (site GGGTCACCTGG) | 0 |
| GGTAATCCATGGACCGGTTTTCCCGGTAATCCGTATTTGTT (site CGGAATCCTAA) | 0.0139 |
| GGTAATCCATGGACCGGTTTTCCCGGTAATCCGTATTTGTT (site GGTAATCCTAA) | 0.518 |
| GGTACACCATGGACCGGTTTTCCCGGTAATCCGTATTTGAC (site AGTACACCTGT) | 0 |
| GGTACACCATGGACCGGTTTTCCCGGTAATCCGTATTTGAC (site CGTACACCTGT) | 0 |
| GGTACACCATGGACCGGTTTTCCCGGTAATCCGTATTTGAC (site GGTACACCTGT) | 0 |
| GGTACACCATGGACCGGTTTTCCCGGTAATCCGTATTTGAC (site TGTACACCTGT) | 0 |
| GGTACCTCATGGACCGGTTTTCCCGGTAATCCGTATTTGAG (site GGTACCTCTCT) | 0.374 |
| GGTACCTCATGGACCGGTTTTCCCGGTAATCCGTATTTGTT (site GGTACATCTAA) | 0.0159 |
| GGTACCTCATGGACCGGTTTTCCCGGTAATCCGTATTTGTT (site GGTACCTCTAA) | 0.187 |
| GGTACCTCATGGACCGGTTTTCCCGGTAATCCGTATTTGTT (site GGTACGTCTAA) | 0.014 |
| GGTACCTCATGGACCGGTTTTCCCGGTAATCCGTATTTGTT (site GGTACTTCTAA) | 0.00378 |
| GGTAGAACATGGACCGGTTTTCCCGGTAATCCGTATTTGGC (site GATAGAACTGC) | 0 |
| GGTAGAACATGGACCGGTTTTCCCGGTAATCCGTATTTGGC (site GCTAGAACTGC) | 0 |
| GGTAGAACATGGACCGGTTTTCCCGGTAATCCGTATTTGGC (site GGTAGAACTGC) | 0.973 |
| GGTAGAACATGGACCGGTTTTCCCGGTAATCCGTATTTGGC (site GTTAGAACTGC) | 0 |
| GGTATACCATGGACCGGTTTTCCCGGTAATCCGTATTTGGT (site GGTATACCTAC) | 0.00474 |
| GGTATTTCATGGACCGGTTTTCCCGGTAATCCGTATTTGCC (site GGTATTTCTGG) | 0 |
| GGTCCACCATGGACCGGTTTTCCCGGTAATCCGTATTTGCT (site GGTCCACCTAG) | 0 |
| GGTCGGACATGGACCGGTTTTCCCGGTAATCCGTATTTGCG (site GGTCGGACTCG) | 1.29 |
| GGTCTGTCATGGACCGGTTTTCCCGGTAATCCGTATTTGAA (site GGTCTGTCTTT) | 0.0119 |
| GGTCTTACATGGACCGGTTTTCCCGGTAATCCGTATTTGAG (site GGTCTTACTCT) | 0.0687 |
| GGTGCACCATGGACCGGTTTTCCCGGTAATCCGTATTTGCA (site GGAGCACCTTG) | 0.00431 |
| GGTGCACCATGGACCGGTTTTCCCGGTAATCCGTATTTGCA (site GGCGCACCTTG) | 0.0224 |

| Sequence | recombinant UMI read abundance (log10) |
| --- | --- |
| GGTGCACCATGGACCGGTTTTCCCGGTAATCCGTATTTGCA (site GGGGCACCTTG) | 0 |
| GGTGCACCATGGACCGGTTTTCCCGGTAATCCGTATTTGCA (site GGTGCACCTTG) | 0 |
| GGTGCGTCATGGACCGGTTTTCCCGGTAATCCGTATTTGTT (site GGTACGTCTAA) | 0.0157 |
| GGTGCGTCATGGACCGGTTTTCCCGGTAATCCGTATTTGTT (site GGTCCGTCTAA) | 0.0208 |
| GGTGCGTCATGGACCGGTTTTCCCGGTAATCCGTATTTGTT (site GGTGCGTCTAA) | 0.668 |
| GGTGCGTCATGGACCGGTTTTCCCGGTAATCCGTATTTGTT (site GGTTCGTCTAA) | 0.0103 |
| GGTGCTGCATGGACCGGTTTTCCCGGTAATCCGTATTTGCT (site GGTGCTGCTAG) | 1.53 |
| GGTGTAGCATGGACCGGTTTTCCCGGTAATCCGTATTTGGT (site GGTGTAGCTAC) | 0.0948 |
| GGTGTGACATGGACCGGTTTTCCCGGTAATCCGTATTTGTG (site GGTGTGACTCA) | 0.68 |
| GGTGTGTCATGGACCGGTTTTCCCGGTAATCCGTATTTGTG (site GGTGTGTCTCA) | 1.16 |
| GGTTAGACATGGACCGGTTTTCCCGGTAATCCGTATTTGCC (site GGATAGACTGG) | 1.17 |
| GGTTAGACATGGACCGGTTTTCCCGGTAATCCGTATTTGCC (site GGCTAGACTGG) | 1.32 |
| GGTTAGACATGGACCGGTTTTCCCGGTAATCCGTATTTGCC (site GGGTAGACTGG) | 1.27 |
| GGTTAGACATGGACCGGTTTTCCCGGTAATCCGTATTTGCC (site GGTTAGACTGG) | 1.9 |
| GGTTAGTCATGGACCGGTTTTCCCGGTAATCCGTATTTGCC (site GGTTAGTCTGG) | 2.06 |
| GGTTCAACATGGACCGGTTTTCCCGGTAATCCGTATTTGTA (site GGTACAACTTA) | 0.00935 |
| GGTTCAACATGGACCGGTTTTCCCGGTAATCCGTATTTGTA (site GGTCCAACTTA) | 0.262 |
| GGTTCAACATGGACCGGTTTTCCCGGTAATCCGTATTTGTA (site GGTGCAACTTA) | 0.00737 |
| GGTTCAACATGGACCGGTTTTCCCGGTAATCCGTATTTGTA (site GGTTCAACTTA) | 0.00797 |
| GGTTCATCATGGACCGGTTTTCCCGGTAATCCGTATTTGCC (site GGTTCATCTGG) | 1.07 |
| GGTTCATCATGGACCGGTTTTCCCGGTAATCCGTATTTGCT (site CGATCATCTAG) | 0 |
| GGTTCATCATGGACCGGTTTTCCCGGTAATCCGTATTTGCT (site GGTTCATCTAG) | 1.84 |
| GGTTGTCCATGGACCGGTTTTCCCGGTAATCCGTATTTGGC (site GGTTGTCCTGC) | 0 |
| GGTTTGGCATGGACCGGTTTTCCCGGTAATCCGTATTTGCT (site AGTTTGGCTAG) | 0.702 |
| GGTTTGGCATGGACCGGTTTTCCCGGTAATCCGTATTTGCT (site CGTTTGGCTAG) | 0 |
